Values of other authors in US20230094837A1, “Biodegradable and Multifunctional Neural Block Devices” (The Penn State Research Foundation, priority 2020, published 2023).

Test system: femur mineral density
Conditions: rats, oral administration

## OC[C@@H](O)[C@H](O)[C@@H](O)CO [xylitol]
  effect on femur mineral density: increased femur mineral density
